Patent publication US10751338B2, “Sustained-release voriconazole-containing thermogel and uses thereof” (priority 2017, dated 2020)
≈ marks a conversion by molar mass, not a printed value.

Assays:
[1] = In vitro release of voriconazole from the thermogel (Example 5); assay type: physicochemical
Description: Each formulation was tested in triplicate.
The injection volume was 100 μl.

[2] = Ex-vivo trans-corneal fluorescein permeation, Franz diffusion cell (Example 4); assay type: in vitro ADME, horse; conditions: 10 μM sodium fluorescein, 6 hours, 37° C.
Description: Fresh equine corneas used in the experiment were obtained from horses enrolled in terminal laboratories performed at the AULATH. Corneoscleral buttons (16 mm diameter) were dissected using standard eye bank technique within 2 hours of enucleation. Fluorescent permeation experiments using a Franz diffusion cell method were performed to examine the integrity of the epithelial barrier function during the times studied (2 and 6 hours). Corneas were mounted horizontally between the donor and the receiving compartments of the diffusion cells (exposure window 0.64 cm^2), which were maintained at 37° C. (see FIGS. 8A and 8B).
Samples (1 ml PBS pH 7.4) were removed from the receiving compartment hourly and replaced with fresh receiving fluid. The fluorescent intensities of the receiving solution samples were analyzed using a microplate spectrofluorometer (Fluostar, BMG Labtech, Ortenberg, Germany) and a 96 well plate (Costar, Corning, N.Y.). A standard solution of NaF was prepared in PBS with a concentration range of 30 μg/ml to 0.12 μg/ml. Fluorescence was determined in a spectrofluorometer at excitation and emission wavelengths of 490 nm and 512 nm, respectively. All groups were tested in triplicate. The results were expressed as mean value±standard error of the mean (SEM).

[3] = test system: common equine fungal pathogens; conditions: target MIC; cited from earlier work

Q: Which “Day by which voriconazole was undetectable” value ([1]; PBS samples) does the source give for `C[C@@H](c1ncncc1F)[C@](O)(Cn1cncn1)c1ccc(F)cc1F` [Group 6, voriconazole] here?
A: ≤ 6 days

Q: What about the UC24 ([1]; mean, PBS, 34.5° C.) of the same compound?
A: 4133 µg·days/mL

Q: What about the UC28 ([1]; mean, PBS, 34.5° C.) of the same compound?
A: 4135 µg·days/mL

Q: And the K release ([1]; mean, first-order release)?
A: 0.7558 day⁻¹

Q: For `O=C1OC2(c3ccc(O)cc3Oc3cc(O)ccc32)c2ccccc21` [fluorescein, sodium fluorescein], which “Fluorescein concentration in receiving compartment versus negative control” value [2] is on record?
A: not significantly different

Q: For `C[C@@H](c1ncncc1F)[C@](O)(Cn1cncn1)c1ccc(F)cc1F` [voriconazole], which MIC [3] is on record?
A: 0.5 µg/mL (≈ 1.43 µM)
